According to US8008303B2, “Biphenyl derivatives and their use in treating hepatitis C” (AstraZeneca AB, priority 2005, dated 2011):
Read-outs that look alike come from different tables or passages of the source.

Tests used:
[1] = test system: HCV replicon cells Huh 9B; format: cell-based
[2] = test system: HCV replicon cells Huh 9B; experiment: HCV replicon assay (luciferase readout); format: cell-based
Summary of the method: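 Compounds, made up at twice final strength (final DMSO 1%), were added to subgenomic replicon cells one day after plating. Incubation then ran 72 h at 37 °C, 5% CO2, without G418. Replication was quantified as firefly luciferase luminescence in lysed cells, with cytotoxicity assessed on a duplicate clear plate.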

[3] = concentration reducing total cell area by 50% relative to DMSO controls, methylene blue, absorbance 620 nm, 72 h incubation
[4] = Hepatitis C virus, 72 h, concentration reducing replicon level (luciferase activity) by 50% vs untreated cell control, 72 h incubation

Compound	TD50 [1]	IC50 [2] [µM]	TD50 [1, 3]	IC50 [2, 4] [µM]
Cc1ccc(C(=O)Nc2ccc(N3CCOCC3)cc2)cc1-c1ccc(C(=O)Nc2ccc(-c3ccno3)cc2)cc1 [Example 28, 6-Methyl-biphenyl-3,4′-dicarboxylic acid 4′-[(4-isoxazol-5-yl-phenyl)-amide] 3-[(4-morpholin-4-yl-phenyl)-amide]]	** (key: * < 50 μM; ** > 50 μM)	< 1	–	–
CC(=O)Nc1ccc(NC(=O)c2ccc(-c3cc(NC(=O)c4ccc(N5CCOCC5)cc4)ccc3C)cc2)cc1 [Example 86, 2′-Methyl-5′-(4-morpholin-4-yl-benzoylamino)-biphenyl-4-carboxylic acid (4-acetylamino-phenyl)-amide]	–	–	** (** > 50 μM)	1 to 5
Cc1ccc(C(=O)NC2CC2)cc1-c1ccc(C(=O)Nc2ccc(CN3CCS(=O)(=O)CC3)cc2)cc1 [Example 121, 6-Methyl-biphenyl-3,4′-dicarboxylic acid 3-cyclopropylamide 4′-{[4-(1,1-dioxo-1lambda*6*-thiomorpholin-4-ylmethyl)-phenyl]-amide}]	* (key: * < 50 μM; ** > 50 μM)	1 to 5	–	–
Cc1ccc(-c2noc(C(C)C)n2)cc1-c1ccc(C(=O)Nc2ccc(CN3CCS(=O)(=O)CC3)cc2)cc1 [Example 207, 5′-(5-Isopropyl-[1,2,4]oxadiazol-3-yl)-2′-methyl-biphenyl-4-carboxylic acid [4-(1,1-dioxo-1lambda*6*-thiomorpholin-4-ylmethyl)-phenyl]-amide]	–	–	* (* < 50 μM)	> 5
Cc1ccc(C(=O)NC2CCCC2)cc1-c1ccc(C(=O)Nc2ccc(CN3CCS(=O)(=O)CC3)cc2)cc1 [Example 148, 6-Methyl-biphenyl-3,4′-dicarboxylic acid 3-cyclopentylamide 4′-{[4-(1,1-dioxo-1lambda*6*-thiomorpholin-4-ylmethyl)-phenyl]-amide}]	* (key: * < 50 μM; ** > 50 μM)	1 to 5	–	–
Cc1ccc(C(=O)Nc2ccc(N3CCOCC3)cc2)cc1-c1ccc(CNc2ccc3cn[nH]c3c2)cc1 [Example 97, 4′-[(1H-Indazol-6-ylamino)-methyl]-6-methyl-biphenyl-3-carboxylic acid (4-morpholin-4-yl-phenyl)-amide]	–	–	** (** > 50 μM)	1 to 5
Cc1ccc(C(=O)Nc2ccc(C)c(-c3ccc(C(=O)Nc4ccc(CN5CCS(=O)(=O)CC5)cc4)cc3)c2)cc1 [Example 160, 2′-Methyl-5′-(4-methyl-benzoylamino)-biphenyl-4-carboxylic acid [4-(1,1-dioxo-1lambda*6*-thiomorpholin-4-ylmethyl)-phenyl]-amide]	–	–	* (* < 50 μM)	< 1
Cc1ccc(NC(=O)CC2CC2)cc1-c1ccc(C(=O)Nc2ccc(CN3CCS(=O)(=O)CC3)cc2)cc1 [Example 178, 5′-(2-Cyclopropyl-acetylamino)-2′-methyl-biphenyl-4-carboxylic acid [4-(1,1-dioxo-1lambda*6*-thiomorpholin-4-ylmethyl)-phenyl]-amide]	–	–	* (* < 50 μM)	< 1
Cc1ccc(NC(=O)C2CCCCC2)cc1-c1ccc(NC(=O)c2ccc(CN3CCS(=O)(=O)CC3)cc2)cc1 [Example 150, N-[5′-(Cyclohexanecarbonyl-amino)-2′-methyl-biphenyl-4-yl]-4-(1,1-dioxo-1lambda*6*-thiomorpholin-4-ylmethyl)-benzamide]	–	–	* (* < 50 μM)	< 1
Cc1ccc(C(=O)Nc2ccc(N3CCOCC3)cc2)cc1-c1ccc(C(=O)NCc2cccc(Br)c2)cc1 [Example 52, 6-Methyl-biphenyl-3,4′-dicarboxylic acid 4′-(3-bromo-benzylamide) 3-[(4-morpholin-4-yl-phenyl)-amide]]	** (key: * < 50 μM; ** > 50 μM)	1 to 5	–	–
Cc1cc(NC(=O)c2ccc(C)c(-c3ccc(C(=O)Nc4ccc(CN5CCS(=O)(=O)CC5)cc4)cc3)c2)sn1 [Example 145, 6-Methyl-biphenyl-3,4′-dicarboxylic acid 4′-{[4-(1,1-dioxo-1lambda*6*-thiomorpholin-4-ylmethyl)-phenyl]-amide} 3-[(3-methyl-isothiazol-5-yl)-amide]]	* (key: * < 50 μM; ** > 50 μM)	1 to 5	–	–
Cc1ccc(C(=O)Nc2ccc(N3CCOCC3)cc2)cc1-c1ccc(C(=O)Nc2ccc3ncsc3c2)cc1 [Example 46, 6-Methyl-biphenyl-3,4′-dicarboxylic acid 4′-benzothiazol-6-ylamide 3-[(4-morpholin-4-yl-phenyl)-amide]]	** (key: * < 50 μM; ** > 50 μM)	> 5	–	–
COc1ccc(S(=O)(=O)Nc2ccc(N3CCOCC3)cc2)cc1-c1ccc(C(=O)Nc2ccc(CN3CCN(S(=O)(=O)C(C)C)CC3)cc2)cc1 [Example 246, 2′-Methoxy-5′-(4-morpholin-4-yl-phenylsulfamoyl)-biphenyl-4-carboxylic acid [4-(4-propane-2-sulfonyl-piperazin-1-ylmethyl)-phenyl]-amide]	–	–	* (* < 50 μM)	< 1
Cc1ccc(C(=O)Nc2ccc(N3CCOCC3)cc2)cc1-c1ccc(C(=O)Nc2cccc(OCc3ccccc3)c2)cc1 [Example 8, 6-Methyl-biphenyl-3,4′-dicarboxylic acid 4′-[(3-benzyloxy-phenyl)-amide] 3-[(4-morpholin-4-yl-phenyl)-amide]]	** (key: * < 50 μM; ** > 50 μM)	1 to 5	–	–
COc1ccc(NC(=O)C2CC2)cc1-c1ccc(C(=O)Nc2ccc(CN3CCS(=O)(=O)CC3)cc2)cc1 [Example 186, 5′-(Cyclopropanecarbonyl-amino)-2′-methoxy-biphenyl-4-carboxylic acid [4-(1,1-dioxo-1lambda*6*-thiomorpholin-4-ylmethyl)-phenyl]-amide]	–	–	* (* < 50 μM)	< 1
COc1cccc(NC(=O)c2ccc(-c3cc(C(=O)Nc4ccc(N5CCOCC5)cc4)ccc3C)cc2)c1 [Example 33, 6-Methyl-biphenyl-3,4′-dicarboxylic acid 4′-[(3-methoxy-phenyl)-amide] 3-[(4-morpholin-4-yl-phenyl)-amide]]	** (key: * < 50 μM; ** > 50 μM)	< 1	–	–
Cc1ccc(NC(=O)c2ccco2)cc1-c1ccc(C(=O)Nc2ccc(N3CCOCC3)cc2)cc1 [Example 18, Furan-2-carboxylic acid [6-methyl-4′-(4-morpholin-4-yl-phenylcarbamoyl)-biphenyl-3-yl]-amide]	–	–	* (* < 50 μM)	1 to 5
Cc1ccc(NC(=O)c2cscn2)cc1-c1ccc(C(=O)Nc2ccc(CN3CCS(=O)(=O)CC3)cc2)cc1 [Example 177, Thiazole-4-carboxylic acid {4′-[4-(1,1-dioxo-1lambda*6*-thiomorpholin-4-ylmethyl)-phenylcarbamoyl]-6-methyl-biphenyl-3-yl}-amide]	–	–	* (* < 50 μM)	1 to 5
Cc1ccc(C(=O)Nc2ccc(N3CCOCC3)cc2)cc1-c1ccc(C(=O)Nc2ccc3[nH]c(C(F)(F)F)nc3c2)cc1 [Example 38, 6-Methyl-biphenyl-3,4′-dicarboxylic acid 3-[(4-morpholin-4-yl-phenyl)-amide] 4′-[(2-trifluoromethyl-1H-benzoimidazol-5-yl)-amide]]	** (key: * < 50 μM; ** > 50 μM)	1 to 5	–	–
O=C(Nc1ccc(CN2CCS(=O)(=O)CC2)cc1)c1ccc(-c2cc(NC(=O)C3CC3)ccc2OC(F)(F)F)cc1 [Example 185, 5′-(Cyclopropanecarbonyl-amino)-2′-trifluoromethoxy-biphenyl-4-carboxylic acid [4-(1,1-dioxo-1lambda*6*-thiomorpholin-4-ylmethyl)-phenyl]-amide]	–	–	* (* < 50 μM)	< 1
CCOC(=O)c1ccc(-c2cc(C(=O)Nc3ccc(N4CCOCC4)cc3)ccc2C)cc1 [Example 84, 2′-Methyl-5′-(4-morpholin-4-yl-phenylcarbamoyl)-biphenyl-4-carboxylic acid ethyl ester]	–	–	** (** > 50 μM)	> 5
Cc1ccc(C(=O)Nc2ccc(C(=O)N3CCCCC3)cc2)cc1-c1ccc(C(=O)Nc2ccc(CN3CCS(=O)(=O)CC3)cc2)cc1 [Example 144, 6-Methyl-biphenyl-3,4′-dicarboxylic acid 4′-{[4-(1,1-dioxo-1lambda*6*-thiomorpholin-4-ylmethyl)-phenyl]-amide} 3-{[4-(piperidine-1-carbonyl) -phenyl]-amide}]	* (key: * < 50 μM; ** > 50 μM)	1 to 5	–	–
Cc1ccc(NC(=O)c2ccc(CN3CCS(=O)(=O)CC3)cc2)cc1-c1ccc(C(=O)Nc2ccc(CN3CCS(=O)(=O)CC3)cc2)cc1 [Example 161, 5′-[4-(1,1-Dioxo-1lambda*6*-thiomorpholin-4-ylmethyl)-benzoylamino]-2′-methyl-biphenyl-4-carboxylic acid [4-(1,1-dioxo-1lambda*6*-thiomorpholin-4-ylmethyl)-phenyl]-amide]	–	–	* (* < 50 μM)	1 to 5
Cc1ccc(CNC(CO)Cc2cnc[nH]2)cc1-c1ccc(C(=O)Nc2ccc(N3CCOCC3)cc2)cc1 (stereo not shown) [Example 95, 5′-{[1-Hydroxymethyl-2-(3H-imidazol-4-yl)-ethylamino]-methyl}-2′-methyl-biphenyl-4-carboxylic acid (4-morpholin-4-yl-phenyl)-amide]	–	–	* (* < 50 μM)	1 to 5
Cc1ccc(NC(=O)c2cccnc2)cc1-c1ccc(C(=O)Nc2ccc(CN3CCS(=O)(=O)CC3)cc2)cc1 [Example 156, N-{4′-[4-(1,1-Dioxo-1lambda*6*-thiomorpholin-4-ylmethyl)-phenylcarbamoyl]-6-methyl-biphenyl-3-yl}-nicotinamide]	–	–	* (* < 50 μM)	1 to 5
Cc1ccc(NC(=O)c2ccc(Br)cc2)cc1-c1ccc(C(=O)Nc2ccc(CN3CCS(=O)(=O)CC3)cc2)cc1 [Example 154, 5′-(4-Bromo-benzoylamino)-2′-methyl-biphenyl-4-carboxylic acid [4-(1,1-dioxo-1lambda*6*-thiomorpholin-4-ylmethyl)-phenyl]-amide]	–	–	* (* < 50 μM)	< 1
